Source: article PMC12715805, “Screening apelin analogues and a small molecule agonist as effective cardiovascular therapeutics against reperfusion injury” (RSC Medicinal Chemistry, 2025)
Where a SMILES comes first, the peptide text is derived from it. [ ]: non-standard residue; d: D form. The star is where a group is joined. Phe(4-Br) = N[C@@H](Cc1ccc(Br)cc1)C(=O)O; PEG6 = NCCOCCOCCOCCOCCOCCOCCC(=O)O; NMeL = CN[C@@H](CC(C)C)C(=O)O; Nle = CCCC[C@H](N)C(=O)O; Cbz = O=C(OCc1ccccc1)*; Aib = CC(C)(N)C(=O)O

Assays:
[1] = target: T1, apelinR / human Gαi1 (Homo sapiens, UniProt P35414); test: ebBRET Gαi1 activation; assay type: cell-based; settings: HEK293 cells transfected with apelinR, human Gαi1, Rap1GAP-RlucII, rGFP-CAAX; 10 min at 37 °C; mean ± SEM of 5 to 6 independent experiments; read-out: Gαi1 activation log EC50 (converted)
T1 sequence (P35414 1-380): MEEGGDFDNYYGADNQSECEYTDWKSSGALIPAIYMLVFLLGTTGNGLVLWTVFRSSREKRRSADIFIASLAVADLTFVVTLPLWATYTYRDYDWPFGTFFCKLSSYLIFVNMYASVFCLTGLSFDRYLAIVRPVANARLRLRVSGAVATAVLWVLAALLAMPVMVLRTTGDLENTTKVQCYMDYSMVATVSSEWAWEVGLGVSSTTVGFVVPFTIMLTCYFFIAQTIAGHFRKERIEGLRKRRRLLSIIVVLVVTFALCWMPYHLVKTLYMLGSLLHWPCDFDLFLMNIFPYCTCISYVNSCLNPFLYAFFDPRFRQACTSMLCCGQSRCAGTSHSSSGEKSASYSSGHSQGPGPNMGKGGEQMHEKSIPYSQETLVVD

[2] = target: T2, apelinR / human Gαi2 (Homo sapiens, UniProt P35414); test: ebBRET Gαi2 activation; assay type: cell-based; settings: HEK293 cells transfected with apelinR, human Gαi2, Rap1GAP-RlucII, rGFP-CAAX; 10 min at 37 °C; mean ± SEM of 5 to 6 independent experiments; read-out: Gαi2 activation log EC50 (converted)
T2 sequence (P35414 1-380): T1 sequence (P35414 1-380)

[3] = tested on: rats; settings: MI rat model; hypertension-induced cardiac dysfunction rat model; cited from earlier work
Description: Another avenue being investigated is the use of small molecule as agonists for the apelinR, such as, Bristol Myers Squibb's BMS-986224,[26,27] Amgen's AMG986,[28] and Davenport's CMF-019.[29] […] In contrast, the two non peptidic apelinR agonists, BMS-98622 ...

[4] = tested on: wild-type male mice (C57BL/6); test: Blood pressure lowering assay in anesthetized mice; assay type: in vivo, mouse
Method: The metabolically stable apelin analogues from each isoform, CbzPEG6–NMeLeu17A2 and NMeLeu13A2 along with the small molecule agonist, BMS-986224 (0.5 μmol kg^−1 infusion during 5 min for each compound), were tested for their BP lowering activity in anesthetized wild-type male mice (C57BL/6, 24–30 g). […] In contrast, the hypotensive effect of CbzPEG6–NMeLeu17A2 was observed immediately after infusion. This analogue reduced mean arterial pressure (MAP) by approximately 50% during the experiment, with the effect sustained for more than 30 minutes post-administration. Apelin can act on the endothelial layer of vasculature, leading to systemic changes in blood pressure by increasing the synthesis of nitric oxide (NO).[5] The effect of CbzPEG6–NMeLeu17A2 on […], which decreases the […] resistance by increasing eNOS activation and NO production through the activation of the PI3K/Akt signalling pathway on endothelial cells like other apelin analogues we tested in the previous studies.[5,11]
The blood pressure measurement and apelin injection method has been described in our previous research.[43] During the blood pressure testing, mice aged 12–14 weeks were anesthetized with 1.5% isoflurane in oxygen and monitored throughout the experiment. The blood pressure was measured using a PV loop catheter (model 1.2F, Transonic) […] into the left carotid artery. The monitor system (LabScribe 2.0. Scisense) recorded aortic blood pressure and heart rate. After a 20-minute baseline measurement, CbzPEG6–NMeLeu17A2, NMeLeu13A2, RI13, RI13A2, RI17, RI17A2, and BMS-986224 (0.5 μmol […] body weight) were diluted in saline and consistently infused for 5 min via the right jugular vein. For BMS-986224, 0.1% DMSO was added to saline to help with dilution. Blood pressure was continuously recorded for 60 minutes post-infusion.
3. Effects of APJ agonists on blood pressure
Figure S3. Different effects of apelin analog and receptor agonist on blood pressure and ischemia-reperfusion injury. A) the effect of CbzPEG6–NMeLeu17A2 (n=3) on mean arterial blood pressure (MAP), B) the effect of apelin 13 analog, NMeLeu13A2, on MAP (n=4). The effect of apelin 13 analog reverse enantiomers, C) RI13 (n=4) and D) RI13A2 (n=4), on MAP. The effect of apelin 17 reverse enantiomers, E) RI17 (n=4) and F) RI17A2 (n=4) on MAP. G) The effect of small molecule apelin receptor agonist BMS-986224 on blood pressure (n=4). The MAP recording between 50 and 60 minutes has been averaged and compared with their controls (placebo (n=4)). The vehicle for BMS-986224 is 0.1% DMSO (n=3). The arrow indicates the time when analogs were introduced. Values mean ±SEM and ****P<0.0001, compared to the control group.
(1 picture or pasted object on this page, not shown here)

[5] = tested on: isolated mouse heart (ischemia–reperfusion injury); test: Ex vivo Langendorff heart perfusion with ischemia–reperfusion
[6] = tested on: phospho-Akt (Ser473); test: Western blot of Akt phosphorylation in left ventricular tissue after Langendorff ischemia–reperfusion; parameters: species or system mouse; settings: n = 6 per group
Method: (§1) Fig. 4 Phosphorylation of Akt and ERK1/2 in left ventricular tissue following ischemia–reperfusion (IR) and treatment with apelin analogues. Protein lysates were analyzed by Western blotting and band intensities quantified by densitometry. (A) Representative Western blots for phosphorylated Akt (p-Akt, Ser473), total Akt, phosphorylated ERK1/2 (p-ERK1/2, Thr202/Tyr204), and total ERK1/2. (B) Quantification of p-Akt/Akt. (C) Quantification of p-ERK1/2/ERK1/2. Data are expressed in arbitrary units relative to aerobic perfusion (control) and presented as mean ± SEM (n = 6 per group). Statistical analysis was performed using one-way ANOVA with Tukey's multiple comparisons test. Symbol key: *p < 0.05 vs. aerobic perfusion; **p < 0.05 vs. aerobic perfusion and placebo; ***p < 0.05 vs. all other groups.
(§2) Protein expression was assessed by Western blot analysis. Left ventricular tissue samples from mice in the Langendorff protocol were homogenized in RIPA buffer supplemented with protease and phosphatase inhibitors (Thermo Fisher Scientific, Waltham, MA, USA). Lysates were cleared by centrifugation at 12 000 × g for 15 min at 4 °C, and protein concentration was determined by the BCA assay (Pierce, Thermo Fisher Scientific, Waltham, MA, USA). Equal amounts of protein (20 μg per lane) were separated on 10% SDS-polyacrylamide gels and transferred to polyvinylidene difluoride (PVDF) membranes (Immobilon-P, MilliporeSigma, Burlington, MA, USA). Membranes were blocked for 1 h at room temperature in 5% bovine serum albumin (BSA) prepared in Tris-buffered saline with 0.1% Tween-20 (TBST) and incubated overnight at 4 °C with the following primary antibodies (all from Cell Signaling Technology, Danvers, MA, USA): phospho-Akt (Ser473; #4060), total Akt (#2920), phospho-ERK1/2 (Thr202/Tyr204; #9101), and total ERK1/2 (#4696), each diluted 1 : 1000 in blocking buffer. […] Band intensities were quantified using ImageJ software (National Institutes of Health, Bethesda, MD, USA), and phosphorylated protein levels were normalized to their corresponding total protein.

[7] = tested on: phospho-ERK1/2 (Thr202/Tyr204); test: Western blot of ERK1/2 phosphorylation in left ventricular tissue after Langendorff ischemia–reperfusion; parameters: species or system mouse; settings: n = 6 per group
Method: as §1, §2

[8] = cited from earlier work
Description: The apelinergic system is a regulator in cardiovascular function and has shown positive effects on myocardial contractility, vasodilation,[4,5] angiogenesis[6] and heart rate.[7] Apelin promotes vasodilation by stimulating nitric oxide (NO) production, with apelin potentiating phosphorylation of Akt and eNOS,[5,8] while its signalling through Akt and ERK pathways also helps regulate cardiac contractility and provides protection against cardiac hypertrophy.[9] Apelin peptide hormones are derived from a 77-residue pre-propeptide and exist as three major isoforms, differentiated by their length, ...

[9] = target: T3, apelinR / β-arrestin1 (Homo sapiens, UniProt P35414); test: ebBRET β-arrestin1 recruitment; assay type: cell-based; settings: HEK293 cells transfected with apelinR, β-arrestin1-RlucII, rGFP-CAAX; 10 min at 37 °C; mean ± SEM of 5 to 6 independent experiments; read-out: β-arr1 recruitment log EC50 (converted)
T3 sequence (P35414 1-380): T1 sequence (P35414 1-380)

[10] = target: T4, apelinR / β-arrestin2 (Homo sapiens, UniProt P35414); test: ebBRET β-arrestin2 recruitment; assay type: cell-based; settings: HEK293 cells transfected with apelinR, β-arrestin2-RlucII, rGFP-CAAX; 10 min at 37 °C; mean ± SEM of 5 to 6 independent experiments; read-out: β-arr2 recruitment log EC50 (converted)
T4 sequence (P35414 1-380): T1 sequence (P35414 1-380)

## CSCC[C@H](NC(=O)[C@@H]1CCCN1C(=O)CN)C(=O)N1CCC[C@H]1C(=O)N[C@@H](Cc1ccccc1)C(=O)O [apelin-5-mer C-terminal] (H-GPMPF-OH)
[1]
  EC50: 1070 nM
[2]
  EC50: 1150 nM

## COc1cccc(OC)c1-n1c(NS(=O)(=O)[C@@H](C)[C@@H](OC(C)C)c2ncc(C)cn2)nnc1-c1cncc(C)c1 [AM-812337]
[3]
  change in BP in a myocardial infarction (MI) rat model and a hypertension-induced cardiac dysfunction rat model (in words): do not induce any change in BP

## CCCC[C@H](NC(=O)[C@@H]1CCCN1C(=O)CNC(=O)[C@H](CCCCN)NC(=O)[C@H](Cc1c[nH]cn1)NC(=O)[C@H](CO)NC(=O)[C@H](CC(C)C)N(C)C(=O)[C@H](CCCNC(=N)N)NC(=O)[C@@H]1CCCN1C(=O)[C@H](CCCNC(=N)N)NC(=O)[C@H](CCC(N)=O)NC(=O)[C@H](CCCNC(=N)N)NC(=O)[C@H](CCCNC(=N)N)NC(=O)[C@H](Cc1ccccc1)NC(=O)[C@H](CCCCN)NC(=O)CCOCCOCCOCCOCCOCCOCCNC(=O)OCc1ccccc1)C(=O)NC(C)(C)C(=O)N[C@@H](Cc1ccc(Br)cc1)C(=O)O [CbzPEG6–NMeLeu17A2] ({Cbz-PEG6}-KFRRQRPR[NMeL]SHKGP[Nle][Aib][Phe(4-Br)]-OH; C-terminus assumed)
[4]; 0.5 μmol kg^−1 infusion during 5 min, anesthetized C57BL/6 mice
  duration of hypotensive effect post-administration: more than 30 minutes
[4]; 0.5 μmol kg^−1 infusion during 5 min, anesthetized C57BL/6 mice, n = 3
  reduction of mean arterial pressure (MAP): approximately 50%
[4]; 0.5 μmol kg^−1 infusion during 5 min via jugular vein, anesthetized wild-type male C57BL/6 mice, compared to vehicle control
  hypotensive effect (BP lowering activity, in words): significant hypotensive effect
[5]; 1 μM in perfusion buffer for first 10 min of reperfusion after 30 min ischemia, compared to placebo, one-way ANOVA, Dunnett
  cardioprotective effect / cardiac function recovery after ischemia–reperfusion (LVDP, RPP, max dP/dt, min dP/dt; in words): significant cardioprotective effect and positive inotropic effect
[5]; 1 μM, 30 min ischemia, 40 min reperfusion, n = 7
  cardiac recovery compared to the placebo treatment (left ventricle contractility, diastolic and systolic function): nearly doubled
[6]; left ventricular tissue after IR and 1 μM treatment, arbitrary units relative to aerobic perfusion (control), both p < 0.0001
  Akt phosphorylation (p-Akt/Akt), mean difference relative to control: −8.857
[6]; left ventricular tissue after IR, arbitrary units, p < 0.001
  Akt phosphorylation (p-Akt/Akt), mean difference versus NMeLeu13A2: −4.018
[6]; left ventricular tissue after IR, one-way ANOVA, Tukey
  Akt phosphorylation compared with IR (in words): robust enhancement
[7]; left ventricular tissue after IR, arbitrary units, p < 0.0001
  ERK1/2 phosphorylation (p-ERK1/2/ERK1/2), mean difference versus NMeLeu13A2: −1.991
[7]; left ventricular tissue after IR, p < 0.01 (NMeLeu13A2), p < 0.0001 (CbzPEG6–NMeLeu17A2)
  ERK1/2 phosphorylation compared with control (in words): significantly increased ERK1/2 phosphorylation
[7]; p < 0.0001
  ERK1/2 activation relative to IR (in words): significant increase in ERK1/2 activation
[8]
  t1/2 in human plasma: > 18 h

## CCCC[C@H](NC(=O)[C@@H]1CCCN1C(=O)CNC(=O)[C@H](CCCCN)NC(=O)[C@H](Cc1c[nH]cn1)NC(=O)[C@H](CO)NC(=O)[C@H](CC(C)C)N(C)C(=O)[C@H](CCCNC(=N)N)NC(=O)[C@@H]1CCCN1C(=O)[C@H](CCCNC(=N)N)NC(=O)[C@@H]1CCC(=O)N1)C(=O)NC(C)(C)C(=O)N[C@@H](Cc1ccc(Br)cc1)C(=O)O [NMeLeu13A2]
[1]
  EC50: 0.0339 nM
[2]
  EC50: 0.0219 nM
[9]
  EC50: 1.23 nM
[10]
  EC50: 1.15 nM
[8]
  half-life in human plasma: ~4 h

## CSCC[C@H](NC(=O)[C@@H]1CCCN1C(=O)CNC(=O)[C@H](CCCCN)NC(=O)[C@H](Cc1c[nH]cn1)NC(=O)[C@@H](N)CO)C(=O)N1CCC[C@H]1C(=O)N[C@@H](Cc1ccccc1)C(=O)O [apelin 8-mer C-terminal] (H-SHKGPMPF-OH)
[1]
  EC50: 490 nM
[2]
  EC50: 347 nM
